These results are taken from US20120005765A1, “ANIMAL MODEL FOR PARKINSON'S DISEASE” (Saint Louis University, priority 2010, published 2012).

For the assay, the target named is α-synuclein (Homo sapiens, UniProt P37840). The experiment in a line: DOPAL-triggered α-synuclein aggregation in test tube, Western blot. The settings on record: AS 2 μM, 37° C., up to 4 h, DOPAL 1.5-1,500 μM. Format: biochemical. On the procedure: Determination of DOPAL-triggered α-synuclein aggregation in vitro. Western blot of DOPAL-triggered AS aggregation in test tube experiments. DOPAL was dissolved in 1% benzyl alcohol, then diluted to a final concentration of 1.5-1,500 μM as described previously. AS (2 μM) was incubated at 37° C. in 20 μl of 100 mM tris-HCl buffer (pH 7.2) with or without DA, DOPAL, DOPAC, or homovanillic acid (HVA) for up to 4 h. The reaction was stopped by heating at 70° C. for 3 min in SDS buffer. The entire mixture was transferred to the appropriate gel (vide infra).
SDS-PAGE and immunoblotting. Ten micrograms of protein (estimated by Bio Rad protein reagent) was resolved by electrophoresis on 4-12% bis-tris gels run with MES SDS buffer, and 3-8% tris-acetate gels using tris-acetate running buffer. For immunoblotting, the protein was transferred to PVDF blotting membranes with […] pore size, blocked with 5% milk protein in tris buffered saline (TBS) containing 0.1% Tween 20, and incubated for 1 h with a AS 202 monoclonal antibody (1:2,500 dilution). Blots were washed five times with 5% milk protein in TBS and probed with horseradish peroxidase-conjugated anti-mouse secondary antibody (1:2,500). Blots were washed five times with TBS containing. 0.5% Tween 20 before detection with Super Signal (Pierce).
Western blot analysis was performed to analyze DOPAL-induced aggregation of α-synuclein (FIG. 1). […]

Consider `O=CCc1ccc(O)c(O)c1` [DOPAL, 3,4-dihydroxyphenylacetaldehyde], for which the “aggregation of α-synuclein oligomers in vitro” value is reported as “triggers dose-dependent aggregation”.
